Test results taken from patent publication US8492385B2, “Crystalline modifications of N-alpha-(2,4,6-triisopropylphenylsulfonyl)-3-hydroxyamidino- (L)- phenylalanine 4-ethoxycarbonylpiperazide and/or salts thereof” (Wilex AG, priority 2004, dated 2013).

Key:
Type in all cases: physicochemical
[1] = Investigation of the hygroscopicity (storage at 85% relative humidity, TGA); conditions: storage for 1 week/85% relative humidity
[2] = Investigation of the crystallinity by X-ray diffractometry; conditions: salts suspended 7 days in a suitable solvent, filtered, dried at room temperature
Text: In a second step, the salts were suspended for 7 days in a suitable solvent, filtered and dried at room temperature.
Processes: X-ray diffractometry (XRD); microscopy

[3] = DSC and TGA thermograms of WX-671.1 (hydrogensulfate salt)
Method: In this example, thermograms were plotted by differential scanning calorimetry (DSC) and thermo-gravimetry (TGA). […] It decomposes from about 180° C. (exothermic peak in the DSC thermogram, mass loss in the TGA thermogram in the corresponding temperature range). The decomposition temperatures are strongly heating rate-dependent and were determined in the DSC calorimeter at a heating rate of 2 Kmin^−1. The DSC table measurements shown were recorded at a heating rate of […] is correspondingly recorded at higher temperatures.

[4] = Thermomicroscopy of WX-671.1
Method: Thermomicroscopic recordings of a sample of WX-671.1 were made (not shown). Agglomerates were observed which show no specific habit. The active compound decomposes with bubble formation from about 197° C. Differences to the decomposition temperature observed in the DSC calorimeter come about due to the different heating rates. WX-671.1 is obtained in nonspecific form from solvents.

[5] = Polymorphism screening / stability of the solid form (stirring in solvents, mechanical stress)

Q: For CCOC(=O)N1CCN(C(=O)[C@H](Cc2cccc(C(N)=NO)c2)NS(=O)(=O)c2c(C(C)C)cc(C(C)C)cc2C(C)C)CC1 [WX-671.1, N-α-(2,4,6-triisopropylphenylsulfonyl)-3-hydroxyamidino-(L)-phenylalanine 4-ethoxycarbonylpiperazide], which “TGA (hygroscopicity)” value [1] is on record?
A: 0.8%

Q: What about the “TGA, kind of water uptake” value [1] of the same compound?
A: (adsorptive)

Q: What about the “XRD (crystallinity)” value [2] of the same compound?
A: liquid crystalline

Q: And the decomposition temperature ([3]; mesophase B)?
A: about 185 °C

Q: And the “mass loss (TGA)” value ([3]; mesophase C, up to 175° C.)?
A: 4.5%

Q: What about the “mass loss (TGA)” value ([3]; modification A, at 150° C.) of the same compound?
A: no significant mass loss

Q: What about the “decomposition with bubble formation, temperature” value [4] of the same compound?
A: about 197 °C

Q: And the “change of form on stirring in water:ethanol (1:1)” value ([5]; mesophase B)?
A: does not change

Q: What about the “change of form due to mechanical stress” value ([5]; mesophase B, grinding in a mortar, compressing at 9 kbar) of the same compound?
A: does not alter

Q: What about the “change of form on stirring in isopropanol” value ([5]; mesophase B, room temperature, one week) of the same compound?
A: changes into modification A

Q: Which “thermodynamic stability of the form” value [5] does the source give for CCOC(=O)N1CCN(C(=O)[C@H](Cc2cccc(C(N)=NO)c2)NS(=O)(=O)c2c(C(C)C)cc(C(C)C)cc2C(C)C)CC1.O=S(=O)(O)O [WX-671.2, N-α-(2,4,6-triisopropylphenyl-sulfonyl)-3-hydroxyamidino-(L)-phenylalanine 4-ethoxy-carbonylpiperazide sulfate] here?
A: thermodynamically stable compound

Q: What does the source list for Hydrochloride?
A: TGA (hygroscopicity) [1]: 7.5%; TGA, kind of water uptake [1]: (adsorptive); XRD (crystallinity) [2]: completely amorphous

Q: Which “TGA (hygroscopicity)” value [1] does the source give for Tartrate here?
A: 10.5%

Q: And the “TGA, kind of water uptake” value [1]?
A: (adsorptive)

Q: And the “XRD (crystallinity)” value [2]?
A: completely amorphous
